In brackets after ≈: the same amount, converted by molar mass. Like-named read-outs stand apart in the source and are kept apart here.
Assays:
liver ALDH2 [1] = molecular target: T1, liver ALDH2 (Rattus norvegicus, UniProt P11884); assay: In vivo ALDH2 enzymatic activity assay, ethanol challenge (Example 2); parameters: species or system rats (Sprague Dawley)
T1 construct: from tissue; host or cells: liver (left lateral lobe) lysate of Sprague Dawley (CD-IGS) rats
T1 sequence (P11884 20-519): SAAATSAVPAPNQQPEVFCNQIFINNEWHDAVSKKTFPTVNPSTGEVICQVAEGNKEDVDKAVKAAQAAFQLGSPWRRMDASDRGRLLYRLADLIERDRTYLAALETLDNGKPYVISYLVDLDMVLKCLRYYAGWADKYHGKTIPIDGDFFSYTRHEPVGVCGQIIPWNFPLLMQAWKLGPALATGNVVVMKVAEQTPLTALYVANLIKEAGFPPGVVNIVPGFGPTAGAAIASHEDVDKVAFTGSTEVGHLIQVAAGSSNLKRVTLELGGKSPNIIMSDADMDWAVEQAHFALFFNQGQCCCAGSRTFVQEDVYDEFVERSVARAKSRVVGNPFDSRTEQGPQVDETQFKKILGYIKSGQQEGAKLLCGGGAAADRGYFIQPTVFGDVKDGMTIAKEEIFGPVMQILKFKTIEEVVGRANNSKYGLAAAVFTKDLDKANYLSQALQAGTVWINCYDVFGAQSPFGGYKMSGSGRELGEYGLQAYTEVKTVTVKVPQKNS
Experimental: (§1) Sixty (60) male and sixty (60) female Sprague Dawley (CD-IGS) were obtained from Charles River Laboratories. All animals were housed under controlled conditions of temperature (72±8° F.), relative humidity (30-70%) and a 12-hour light-dark cycle (light from 6:00 AM to 6:00 PM). All animals were allowed free access to standard rodent chow (PicoLab Rodent Diet 20) and water (reverse osmosis, 0.2 μM filtered). Animals had at least a 3-day acclimation period prior to study.
Example 1-2 was synthesized by PharmAgra Labs, Lot #489PAL97; and stored at 4° C. and protected from light upon receipt. Example 1-2 dosing solutions were prepared by dissolving in PBS (pH 7.0) and thoroughly mixing via vortexing and sonication.
Example 1-15 was synthesized by PharmAgra Labs, Lot #505PAL17; and stored at 4° C. and protected from light upon receipt. Example 1-15 dosing solution was prepared by dissolving in PBS (pH 7.0) and thoroughly mixing via vortexing and sonication. The dosing formulation at concentration of 20 mg/mL was a clear solution.
Body weights of the animals in Groups 1-4 were obtained on Day 1. Body weights of the animals in Groups 5-8 were obtained on Days 1-3 respectively. Body weights of the animals in Groups 9-13 were obtained on Days 1, 4 and 5 respectively.
(§2) Animals were respectively administered vehicle and Example 1-2 at dosages of 2, 6.5 or 12 mg/kg via tail vein injection, once daily for 1 day (Groups 1-4), once daily for 3 days (Groups 5-8), or once daily for 5 days (Groups 9-12). For Group 13, animals were administered 20 mg/kg (on Day 1) or 12 mg/kg (on Days 2-5) dose via tail vein injection, once daily for 5 days. In some studies, the animals were administered a compound described herein for 10 days. In some studies, the animals were administered a compound described herein for 12 days. In some studies, the study was carried out with administered the compounds described herein including Example 1-2 racemate, Example 1-2A, Example 1-21B, Example 1-11 racemate, Example 1-11A, and/or Example 1-11B at a dosage of about 0.5, 1, 2, 4, and 8 mg.
Dosing volume (1 or 0.6 mL/kg) was calculated based on the body weight of the individual animal obtained on Day 1 (all groups), Days 2-3 (Groups 5-8), and Days 4-5 (Groups 9-13).
Ethanol (200PRF or 100% pure, non-denatured and no additives) was obtained from Fisher Scientific. The ethanol dosing solution was prepared fresh for each use. One (1) mL of ethanol was added to four (4) mL of saline (0.9% NaCl) in a glass vial and mixed by vortexing to create a uniform solution prior to administration. Animals were administered 20% ethanol at 1 g/kg (IP) 8 hours following the last dose of test article. Thirty (30) minutes following ethanol challenge, animals were euthanized with CO2. About 7 mL of whole blood was rapidly collected via vena cava for generation of serum samples for assays (Acetaldehyde assay by GPL and ALDH2 activity and protein assay by Eurofins). Blood samples were placed into serum separator tubes and maintained at room temperature for at least 30 minutes to allow clot formation prior to processing.
The left lateral lobe of liver was harvested and rinsed in cold saline to render a sample that was snap frozen in liquid nitrogen. Samples were stored at −80° C. until shipment. […]
The obtained serum samples as described herein were measured in singlicate for Acetaldehyde concentration using the Acetaldehyde Colorimetric Assay Kit (BioAssay Systems, #EACT-100), in accordance with manufacturer's instructions. […]

liver ALDH2 [2] = molecular target: T1, liver ALDH2; assay: In vivo ALDH2 enzymatic activity assay with disulfiram comparison, ethanol challenge (Example 3); parameters: species or system rats (Sprague Dawley); settings: for statistical significance of ALDH2 inhibitions: 2 mg/kg, 6.5 mg/kg and 12 mg/kg IV QD; for dose-activity response of ALDH2 inhibition: 2, 6.5, 12 mg/kg IV QD 3 days; for onset of inhibition of ALDH2 activity: after only 3-day administration; for ALDH2 inhibition versus Disulfiram at 3.57 mg/kg/day PO: after three days at 2 mg/kg/day IV
Experimental: as §1, with “Eighty-eight (88)” for “Sixty (60)”, “male” for “male and sixty (60) female”
30 mL disulfiram formulation were prepared. 64.2 mg of disulfiram was completely dissolved in 6 mL of DMSO to render a mixture. 0.3 mL of Tween 80 was then slowly added to the mixture. To the resulting mixture, 23.7 mL of PBS (1×, pH 5.0) was slowly added while stirring to render a dosing formulation. The dosing formulation was a fine suspension at concentration of 2.14 mg/mL. The final concentrations for DMSO and […] were 20% v/v and 1% v/v, respectively.
The dosing formulations of Example 1-4A, Example 1-4B3, and Example 1-2 and difulfiram were prepared with PBS (pH 7.0) by thoroughly mixing via vortexing and sonication.
Ethanol challenge study design and dosing groups of Example 1-4A, Example 1-48, and Example 1-2 and difulfiram are as shown in Table 3.
Animals in Group 1 was administered vehicle (PBS) via tail vein injection, once daily for 3 days. Animals in Group 2 was administered vehicle (PBS) disulfiram at 3.57 mg/kg via oral gavage (PO) once daily for 3 days. Animals in Groups 3-11 were respectively administered Example 1-4A at 2, 6.5, and 12 mg/kg, Example 1-4B at 2, 6.5, and 12 mg/kg, or Example 1-2 at 2, 6.5, and 12 mg/kg via tail vein injection, once daily for 3 days.
Dosing volume (1 or 1.67 mL/kg) was calculated based on the individual body weight obtained prior to the first dose of test article.
Ethanol (200PRF or 100% pure, non-denatured and no additives) was obtained from Fisher Scientific. Ethanol dosing solution (20% v/v in saline) was prepared by mixing one (1) part of ethanol and four (4) part of saline (0.9% NaCl) thoroughly to create a uniform solution prior to administration. Animals was administered 20% ethanol at 1 g/kg (IP) 8 hours following the third dose of test article. Thirty (30) minutes following ethanol challenge, animals were euthanized with CO2. About 2 mL of whole blood was rapidly collected via vena cava for generation of plasma samples. Blood samples were placed into K2 EDTA tubes and kept on wet ice prior to processing. Liver lysate generation, protein concentration determination, and ALDH2 activity assay were performed by Confluence Discovery Technologies (CDT). Protein concentrations were determined using the Pierce BCA Protein Assay Kit. ALDH2 Activity Assay using the Abcam assay kit #ab115348.

liver ALDH2 [3] = molecular target: T1, liver ALDH2; assay: as above; parameters: species or system rats (Sprague Dawley); settings: 2 mg/kg, 6.5 mg/kg and 12 mg/kg IV QD; printed 'after 5 days'
liver ALDH2 [4] = molecular target: T1, liver ALDH2; assay: 10-day rat Pharmacology study, liver ALDH2 activity following ethanol challenge; format: in vivo
Experimental: as §2
Ethanol (200PRF or 100% pure, non-denatured and no additives) was obtained from Fisher Scientific. The ethanol dosing solution was prepared fresh for each use. One (1) mL of ethanol was added to four (4) mL of saline (0.9% NaCl) in a glass vial and mixed by vortexing to create a uniform solution prior to administration. Animals were administered 20% ethanol at 1 g/kg (IP) 8 hours following the last dose of test article. Thirty (30) minutes following ethanol challenge, animals were euthanized with CO2. […]

[5] = Solubility in CHCl3, DCM and DMSO by SFC/UV; format: physicochemical; settings: organic solvent or mixture, thermodynamic from solid, room temperature
Experimental: The solubility in chloroform (CHCl3), dichloromethane (DCM) and dimethyl sulfoxide (DMSO) was determined at room temperature up to 50 mg/mL by measuring the concentrations of the solutions using SFC/UV. […] 200 mg Example 1-11B was weighed individually into three separate vials. 4 mL DMSO, 6 mL CHCl3 and 6 mL DCM were pipetted into the three vials containing Example 1-11B. The solutions were mixed and sonicated for 10 minutes. The DMSO solution was clear, and an aliquot was taken and diluted 100 times using MeOH before being subjected to SFC analysis. The saturated CHCl3 and DCM solutions were centrifuged, and the clear solution was diluted 100 times using MeOH before being subjected to SFC analysis:
Solubility measurement of up to 50 mg/mL in DMSO, CHCl3 and DCM was requested. […] At 50 mg/mL, Example 1-11B was not completely dissolved in CHCl3 or DCM solutions. After mixing and sonication, a clear aliquot of each solution was taken, and the concentrations of Example 1-11B in CHCl3 and DCM were measured by SFC/UV using the DMSO solution as a reference.

In the case of `CCN(CC)C(=O)[S+]([O-])CC[S+]([O-])C(=O)N(CC)CC` (stereo not drawn) [Example 1-15, 1-1′-(ethane-1,2-diyldisulfinyl)bis(N,N-diethylmethanamide)], the melting point is reported as 71.2 to 74.5 °C and the “ALDH2 inhibition activity in comparison with the negative control group” value (liver ALDH2 [1]; 20 mg/kg (Day 1), 12 mg/kg (Days 2-5) tail vein injection QD 5 days, ethanol challenge) is reported as “did not show any inhibition activity”.

With `CCN(CC)C(=O)[S+]([O-])CC1CC1` (single isomer, unassigned; peak-2) [Example 1-4B, 1-((cyclopropylmethyl)sulfinyl)-N,N-diethylmethanamide (Peak-2)] the “statistical significance of ALDH2 inhibitions” value (liver ALDH2 [2]) was “statistically significant”, the “dose-activity response of ALDH2 inhibition” value (liver ALDH2 [2]) was “A dose-activity response was observed” and the “onset of inhibition of ALDH2 activity” value (liver ALDH2 [2]) was “fast activity onset”. The “ALDH2 inhibition versus Disulfiram at 3.57 mg/kg/day PO” value (liver ALDH2 [2]) was “greater inhibition” and the “ALDH2 inhibition (FIG. 7)” value (liver ALDH2 [3]) was “showed ALDH2 inhibitions”.

For `CCN(CC)C(=O)[S+](C)[O-]` (racemic) [Example 1-2, N,N-diethyl-1-(methylsulfinyl)methanamide], the “ALDH2 inhibition after one (1) day administration” value (liver ALDH2 [1]; 6.5 mg/kg and 12 mg/kg IV, 1 day) was “statistically significant ALDH2 inhibitions were observed”, the “dose response and treatment-duration response in inhibiting ALDH2 activities” value (liver ALDH2 [1]; 2, 6.5 or 12 mg/kg tail vein injection QD for 1, 3 or 5 days, ethanol 1 g/kg IP 8 h after last dose) was “A dose response and a treatment-duration response were observed” and the “ALDH2 inhibition, treatment for 3 and 5 days” value (liver ALDH2 [1]; all doses (2, 6.5, 12 mg/kg) IV QD for 3 and 5 days) was “statistically significant ALDH2 inhibitions at all doses”. The “inhibition of liver ALDH2 activity (FIGS. 2 and 3)” value (liver ALDH2 [1]; dosages of 2 mg/kg, 6.5 mg/kg and 12 mg/kg IV QD) was “statistically significant effectiveness in inhibiting liver ALDH2 activity”, the “statistical significance of ALDH2 inhibitions” value (liver ALDH2 [2]) was “statistically significant” and the “dose-activity response of ALDH2 inhibition” value (liver ALDH2 [2]) was “A dose-activity response was observed”. For the same compound, the “onset of inhibition of ALDH2 activity” value (liver ALDH2 [2]) was “fast activity onset”, the “ALDH2 inhibition versus Disulfiram at 3.57 mg/kg/day PO” value (liver ALDH2 [2]) was “greater inhibition” and the “ALDH2 inhibition (FIG. 7)” value (liver ALDH2 [3]) was “showed ALDH2 inhibitions”.

In the case of `CCN(CC)C(=O)[S@+](C)[O-]` (single isomer, unassigned; peak-1) [Example 1-2A, (S )-N, N-diethyl-1 - (methylsulfinyl)methanamide (Peak-1)], the “ALDH2 inhibition, enantiomer versus other enantiomer (FIG. 12)” value (liver ALDH2 [4]; 10-day administration at 0.5, 1 and 2 mg/kg) is reported as “greater ALDH2 inhibition compared the other enantiomer Example 1-2B”.

With `C[S@+]([O-])C(=O)N1CCC(O)CC1` [Example 1-11B, (S)-(4-hydroxypiperidin-1-yl)(methylsulfinyl)methanone] the solubility at 10 min ([5]; chloroform (CHCl3), SFC/UV, read-out: solubility in CHCl3) was 12.4 mg/mL (≈ 64.8 mM), the solubility at 10 min ([5]; dichloromethane (DCM), SFC/UV, read-out: solubility in DCM) was 12.3 mg/mL (≈ 64.3 mM) and the solubility at 10 min ([5]; dimethyl sulfoxide (DMSO), tested up to 50 mg/mL, read-out: solubility in DMSO) was > 50 mg/mL.

For `C[S+]([O-])C(=O)N1CCC(O)CC1` (racemic) [Example 1-11, (4-hydroxypiperidin-1-yl)(methylsulfinyl)methanone], the “ALDH2 inhibition versus pure enantiomer Example 1-11A (FIG. 12)” value (liver ALDH2 [4]; 10 day administration at 2, 4 and 8 mg/kg, material with 66 wt % of Example 1-11B) was “greater ALDH2 inhibition than the pure enantiomer Example 1-11A”.
